From patent publication US11173162B2, “Bicyclic heterocycles as FGFR4 inhibitors” (Incyte Corporation, priority 2015, dated 2021) come the findings set out here.

This assay concerns FGFR3 enzyme. Nature of the assay: FGFR Enzymatic Assay (FRET peptide phosphorylation), FGFR3. Type of assay: biochemical. The settings on record: IC50 ratio showing FGFR3 selectivity; Table 2A, pre-incubated for 4 hours. Here is the method: The inhibitor potency of the exemplified compounds was measured in an enzyme assay that measures peptide phosphorylation using FRET measurements to detect product formation. Inhibitors were serially diluted in DMSO and a volume of 0.5 μL was transferred to the wells of a 384-well plate.
GraphPad prism3 was used to analyze the data.
As for `CCc1cnc(N2C(=O)N(c3c(F)c(OC)cc(OC)c3F)Cc3cnc(-c4cn(C)nc4C)cc32)cn1` [Example 106, 3-(2,6-difluoro-3,5-dimethoxyphenyl)-7-(1,3-dimethyl-1H-pyrazol-4-yl)-1-(5-ethylpyrazin-2-yl)-3,4-dihydropyrido[4,3-d]pyrimidin-2(1H)-one], the FGFR1/FGFR3 is above 3 and the FGFR4/FGFR3 is reported as above 5.

For the compound `CCN1C(=O)N(c2c(F)c(OC)cc(OC)c2F)Cc2cnc(-c3ccc(C4(C#N)CC4)cc3)cc21` [Example 183, 1-(4-(3-(2,6-difluoro-3,5-dimethoxyphenyl)-1-ethyl-2-oxo-1,2,3,4-tetrahydropyrido[4,3-d]pyrimidin-7-yl)phenyl)cyclopropanecarbonitrile], the FGFR1/FGFR3 was above 3 and the FGFR4/FGFR3 was above 10.

Turning to `COc1cc(OC)c(F)c(N2Cc3cnc(-c4cn(C)nc4C)cc3N(C3CCCC3)C2=O)c1F` [Example 32, 1-cyclopentyl-3-(2,6-difluoro-3,5-dimethoxyphenyl)-7-(1,3-dimethyl-1H-pyrazol-4-yl)-3,4-dihydropyrido[4,3-d]pyrimidin-2(1H)-one], the FGFR1/FGFR3 is above 1 and the FGFR4/FGFR3 is given as above 5.

Take `COc1cc(OC)c(F)c(N2Cc3cnc(-c4cn(C)nc4C)cc3N(Cc3ccnc(C)c3)C2=O)c1F` [Example 68, 3-(2,6-difluoro-3,5-dimethoxyphenyl)-7-(1,3-dimethyl-1H-pyrazol-4-yl)-1-((2-methylpyridin-4-yl)methyl)-3,4-dihydropyrido[4,3-d]pyrimidin-2(1H)-one]: the FGFR1/FGFR3 is above 5 and the FGFR4/FGFR3 was above 5.

As to `COc1cc(OC)c(F)c(N2Cc3cnc(-c4cn(C)nc4C)cc3N(c3ccc(C#N)cc3)C2=O)c1F` [Example 44, 4-(3-(2,6-difluoro-3,5-dimethoxyphenyl)-7-(1,3-dimethyl-1H-pyrazol-4-yl)-2-oxo-3,4-dihydropyrido[4,3-d]pyrimidin-1 (2H)-yl)benzonitrile], the FGFR1/FGFR3 is recorded as above 10 and the FGFR4/FGFR3 is reported as above 10.

Consider `COc1cc(N2C(=O)N(c3c(F)c(OC)cc(OC)c3F)Cc3cnc(-c4cn(C)nc4C)cc32)ccc1C#N` [Example 81, 4-(3-(2,6-difluoro-3,5-dimethoxyphenyl)-7-(1,3-dimethyl-1H-pyrazol-4-yl)-2-oxo-3,4-dihydropyrido[4,3-d]pyrimidin-1(2H)-yl)-2-methoxybenzonitrile], for which the FGFR1/FGFR3 is above 5 and the FGFR4/FGFR3 was above 10.

For `COc1cc(OC)c(F)c(N2Cc3cnc(-c4cn(C)nc4C)cc3N(Cc3ccncn3)C2=O)c1F` [Example 65, 3-(2,6-difluoro-3,5-dimethoxyphenyl)-7-(1,3-dimethyl-1H-pyrazol-4-yl)-1-(pyrimidin-4-ylmethyl)-3,4-dihydropyrido[4,3-d]pyrimidin-2(1H)-one], the FGFR1/FGFR3 was above 5 and the FGFR4/FGFR3 is reported as above 10.

As for `COc1cc(OC)c(F)c(N2Cc3cnc(-c4cn(C)nc4C)cc3N(Cc3cccnn3)C2=O)c1F` [Example 88, 3-(2,6-difluoro-3,5-dimethoxyphenyl)-7-(1,3-dimethyl-1H-pyrazol-4-yl)-1-(pyridazin-3-ylmethyl)-3,4-dihydropyrido[4,3-d]pyrimidin-2(1H)-one], the FGFR1/FGFR3 is listed as above 5 and the FGFR4/FGFR3 is given as above 10.

`COc1cc(OC)c(F)c(N2Cc3cnc(-c4cn(C)nc4C)cc3N(c3ccn(C)n3)C2=O)c1F` [Example 100, 3-(2,6-difluoro-3,5-dimethoxyphenyl)-7-(1,3-dimethyl-1H-pyrazol-4-yl)-1-(1-methyl-1H-pyrazol-3-yl)-3,4-dihydropyrido[4,3-d]pyrimidin-2(1H)-one]: the FGFR1/FGFR3 is above 5 and the FGFR4/FGFR3 is on record as above 5.

On to `COc1cc(OC)c(F)c(N2Cc3cnc(-c4cn(C)nc4C)cc3N(C(C)C)C2=O)c1F` [Example 90, 3-(2,6-difluoro-3,5-dimethoxyphenyl)-7-(1,3-dimethyl-1H-pyrazol-4-yl)-1-isopropyl-3,4-dihydropyrido[4,3-d]pyrimidin-2(1H)-one], for which the FGFR1/FGFR3 is above 5 and the FGFR4/FGFR3 was above 5.

Regarding `COc1cc(OC)c(F)c(N2Cc3cnc(-c4cnn(C5(C#N)CCC5)c4C)cc3C3(CC3)C2=O)c1F` [Example 149, 1-(4-(2′-(2,6-difluoro-3,5-dimethoxyphenyl)-3′-oxo-2′,3′-dihydro-1′H-spiro[cyclopropane-1,4′-[2,7]naphthyridine]-6′-yl)-5-methyl-1H-pyrazol-1-yl)cyclobutanecarbonitrile], the FGFR1/FGFR3 is reported as above 5 and the FGFR4/FGFR3 is reported as above 3.

In the case of `COc1cc(OC)c(F)c(N2Cc3cnc(-c4cn(C)nc4C)cc3N(c3ccc(C#N)cn3)C2=O)c1F` [Example 79, 6-(3-(2,6-difluoro-3,5-dimethoxyphenyl)-7-(1,3-dimethyl-1H-pyrazol-4-yl)-2-oxo-3,4-dihydropyrido[4,3-d]pyrimidin-1(2H)-yl)nicotinonitrile], the FGFR1/FGFR3 is on record as above 5 and the FGFR4/FGFR3 is above 3.

As for `CCN1C(=O)N(c2c(F)c(OC)cc(OC)c2F)Cc2cnc(-c3ccc(C(N)=O)nc3)cc21` [Example 184, 5-(3-(2,6-difluoro-3,5-dimethoxyphenyl)-1-ethyl-2-oxo-1,2,3,4-tetrahydropyrido[4,3-d]pyrimidin-7-yl)picolinamide], the FGFR1/FGFR3 is above 5 and the FGFR4/FGFR3 is above 5.

`CCN1C(=O)N(c2c(F)c(OC)cc(OC)c2F)Cc2cnc(-c3ccc(C4(C#N)CCC4)cc3)cc21` [Example 181, 1-(4-(3-(2,6-difluoro-3,5-dimethoxyphenyl)-1-ethyl-2-oxo-1,2,3,4-tetrahydropyrido[4,3-d]pyrimidin-7-yl)phenyl)cyclobutanecarbonitrile]: the FGFR1/FGFR3 is on record as above 5 and the FGFR4/FGFR3 is above 10.

In the case of `COc1cc(OC)c(F)c(N2Cc3cnc(-c4ccccc4)cc3C3(CC3)C2=O)c1F` [Example 17, 2′-(2,6-difluoro-3,5-dimethoxyphenyl)-6′-phenyl-1′H-spiro[cyclopropane-1,4′-[2,7]naphthyridin]-3′(2′H)-one], the FGFR1/FGFR3 is given as above 10.

On to `COc1cc(OC)c(F)c(N2Cc3cnc(-c4cn(C)nc4C)cc3N(c3cccc(F)c3)C2=O)c1F` [Example 99, 3-(2,6-difluoro-3,5-dimethoxyphenyl)-7-(1,3-dimethyl-1H-pyrazol-4-yl)-1-(3-fluorophenyl)-3,4-dihydropyrido[4,3-d]pyrimidin-2(1H)-one], for which the FGFR1/FGFR3 is reported as above 5 and the FGFR4/FGFR3 is above 5.

With `COc1cc(OC)c(F)c(N2Cc3cnc(-c4cn(C)nc4C)cc3N(Cc3ccc(C#N)nc3)C2=O)c1F` [Example 74, 5-((3-(2,6-difluoro-3,5-dimethoxyphenyl)-7-(1,3-dimethyl-1H-pyrazol-4-yl)-2-oxo-3,4-dihydropyrido[4,3-d]pyrimidin-1(2H)-yl)methyl)picolinonitrile], the FGFR1/FGFR3 is above 5 and the FGFR4/FGFR3 was above 5.

Consider `COc1cc(OC)c(F)c(N2Cc3cnc(-c4cn(C5CCS(=O)(=O)C5)nc4C)cc3C3(CC3)C2=O)c1F` (centres unmarked) [Example 54, 2′-(2,6-difluoro-3,5-dimethoxyphenyl)-6′-[1-(1,1-dioxidotetrahydro-3-thienyl)-3-methyl-1H-pyrazol-4-yl]-1′,2′-dihydro-3′H-spiro[cyclopropane-1,4′-[2,7]naphthyridin]-3′-one], for which the FGFR1/FGFR3 is above 5 and the FGFR4/FGFR3 is above 1.

Take `COc1cc(OC)c(F)c(N2Cc3cnc(-c4cn(C)nc4C)cc3N(Cc3ccc(F)cc3)C2=O)c1F` [Example 34, 3-(2,6-difluoro-3,5-dimethoxyphenyl)-7-(1,3-dimethyl-1H-pyrazol-4-yl)-1-(4-fluorobenzyl)-3,4-dihydropyrido[4,3-d]pyrimidin-2(1H)-one]: the FGFR1/FGFR3 is on record as above 5 and the FGFR4/FGFR3 is reported as above 10.

`COc1cc(OC)c(F)c(N2Cc3cnc(-c4cnn(CC5CN(S(C)(=O)=O)C5)c4)cc3C3(CC3)C2=O)c1F` [Example 166, 2′-(2,6-difluoro-3,5-dimethoxyphenyl)-6′-(1-((1-(methylsulfonyl)azetidin-3-yl)methyl)-1H-pyrazol-4-yl)-1′H-spiro[cyclopropane-1,4′-[2,7]naphthyridin]-3′(2′H)-one]: the FGFR1/FGFR3 is above 3 and the FGFR4/FGFR3 is recorded as above 3.

With `COc1cc(OC)c(F)c(N2Cc3cnc(-c4cn(C)nc4C)cc3N(c3cccnc3)C2=O)c1F` [Example 86, 3-(2,6-difluoro-3,5-dimethoxyphenyl)-7-(1,3-dimethyl-1H-pyrazol-4-yl)-1-(pyridin-3-yl)-3,4-dihydropyrido[4,3-d]pyrimidin-2(1H)-one], the FGFR1/FGFR3 was above 5 and the FGFR4/FGFR3 is recorded as above 10.

On to `COc1cc(OC)c(F)c(N2Cc3cnc(-c4cn(CCCN5CCOCC5)nc4C)cc3C3(CC3)C2=O)c1F` [Example 146, 2′-(2,6-difluoro-3,5-dimethoxyphenyl)-6′-(3-methyl-1-(3-morpholinopropyl)-1H-pyrazol-4-yl)-1′H-spiro[cyclopropane-1,4′-[2,7]naphthyridin]-3′(2′H)-one], for which the FGFR1/FGFR3 is reported as above 10 and the FGFR4/FGFR3 is above 5.

`COc1cc(OC)c(F)c(N2Cc3cnc(-c4cn(C)nc4C)cc3N(Cc3cncnc3)C2=O)c1F` [Example 84, 3-(2,6-difluoro-3,5-dimethoxyphenyl)-7-(1,3-dimethyl-1H-pyrazol-4-yl)-1-(pyrimidin-5-ylmethyl)-3,4-dihydropyrido[4,3-d]pyrimidin-2(1H)-one]: the FGFR1/FGFR3 was above 5 and the FGFR4/FGFR3 is listed as above 5.

As to `COc1cc(OC)c(F)c(N2Cc3cnc(-c4cn(CCC5CCNCC5)nc4C)cc3C3(CC3)C2=O)c1F` [Example 165, 2′-(2,6-difluoro-3,5-dimethoxyphenyl)-6′-(3-methyl-1-(2-(piperidin-4-yl)ethyl)-1H-pyrazol-4-yl)-1′H-spiro[cyclopropane-1,4′-[2,7]naphthyridin]-3′(2′H)-one], the FGFR1/FGFR3 is above 3 and the FGFR4/FGFR3 is given as above 3.
